In assay [1] the test system is proliferating CP and TD myoblast cultures. Briefly: Global DNA methylation, MethylFlash Methylated DNA Quantification Kit. Format: cell-based, human. As to conditions: 5 μM, 24 hours; FIG. 9A. As to the method:
FIG. 9A illustrates global methylation levels of DNA in proliferating CP and TD myoblast cultures that were treated or non-treated with 5-AZA. Methylation levels were measured using a MethylFlash Methylated DNA Quantification Kit (EpiGentek, P-1034-96). Myoblasts were seeded into gelatin-coated 10 cm plates. Myoblast cell preparations from CP and TD study subjects were exposed to 5 μM of 5-AZA in proliferation medium. 5-AZA was introduced while the myoblast cell preparations were being developed in the high-serum medium, once the myoblast cell preparations were at about 60% of cell plate confluence by visual inspection. […] The myoblast cell preparations then had the 5-AZA washed off by switching the myoblast cell preparations each to fresh high-serum medium and further expanded to 90% of confluence. DNA was extracted from these cultures using the “DNA Purification from Cultured Cells” protocol as described in the Gentra Puregene DNA isolation kit (Qiagen, 158388).
In FIG. 9A, global methylation levels of DNA were investigated in proliferating CP and TD myoblast cultures that were treated or non-treated with 5-AZA. Methylation levels were measured using a MethylFlash Methylated DNA Quantification Kit (EpiGentek, P-1034-96). Myoblasts were seeded into gelatin-coated 10 cm plates. Myoblast cell preparations from CP and TD study subjects were exposed to 5 μM of 5-AZA in proliferation medium. […]

The subject of assay [2] is CP and TD myoblast preparations. Briefly: Cell doubling time, xCELLigence RTCA DP. Format: cell-based, human. Particulars: 5 μM, 24 hours; FIG. 9B. Here is the method: FIG. 9B. A cell impedance-measuring xCELLigence RTCA DP instrument was used to quantify rates of “cell doubling time” (a measurement of cell proliferation) in CP and TD myoblast preparations, treated and non-treated with 5-AZA, as illustrated in FIG. 9B. Proliferating myoblasts were treated with 5 μM 5-AZA (Sigma-Aldrich) for 24 hours to induce DNA hypomethylation. Other cell preparations were not treated with 5-AZA to serve as a control. Following treatment, myoblasts were harvested from exponential growth phase cultures by a standardized detachment procedure using 0.05% Trypsin-EDTA and counted. […] Plates were locked in the RTCA DP device in the incubator and the impedance value of each well was automatically monitored by the xCELLigence system and expressed as a Cell Index value (CI). […] CI was recorded every 15 min for the entirety of the period. Cell doubling time was calculated from the exponential phase of the growth curve generated by the CI values using the supplied RTCA software.
A cell impedance-measuring xCELLigence RTCA DP instrument was used to quantify rates of “cell doubling time” (a measurement of cell proliferation) in CP and TD myoblast preparations, treated and non-treated with 5-AZA, as illustrated in FIG. 9B. […] Following treatment, myoblasts were harvested from exponential growth phase cultures by a standardized detachment procedure using 0.05% Trypsin-EDTA and counted. […]

In the case of `Nc1ncn([C@@H]2O[C@H](CO)[C@@H](O)[C@H]2O)c(=O)n1` [5-AZA, 5-azacytidine], the “global methylation levels of DNA” value in assay [1] was “caused global DNA hypomethylation in both CP and TD patients”. Also, in assay [2], the cell doubling time result is “resulted in similar myoblast cell doubling times between CP and TD myoblasts”.
